This assay deals with L1210 leukemia ip in BDF1 mice, survival T/C. The experiment in a line: NCI In Vivo Anticancer Drug Screen. Data for tumor model L1210 Leukemia (intraperitoneal) in B6D2F1 (BDF1) mice. To be noted: endpoint: mean survival time, higher = longer survival. An outline of the steps:
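Survival endpoint. Drug-treated group vs vehicle group, expressed as T divided by C. Tumor passaged by transplantation.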

Where [1] appears, read: dose: 100.0 mg/kg/injection, schedule: Q04DX003 (ip), vehicle: Klucel (hydroxypropylcellulose) (HPC).
Setting [2] is: dose: 100.0 mg/kg/injection, schedule: Q04DX003 (ip), vehicle: saline with Tween-80.
Where [3] appears, read: dose: 200.0 mg/kg/injection, schedule: Q04DX003 (ip), vehicle: saline with Tween-80.
Where [4] appears, read: dose: 400.0 mg/kg/injection, schedule: Q04DX003 (ip), vehicle: saline with Tween-80.
Where [5] appears, read: dose: 200.0 mg/kg/injection, schedule: Q04DX003 (ip), vehicle: Klucel (hydroxypropylcellulose) (HPC).

Where “and” joins values, the source holds several entries; their conditions need not be identical. Equal entries are not always repeated. Inconclusive results and toxic doses are left out.

For the compound `O=c1cc(-c2ccccc2)oc2cc(O)cc(O)c12`, the T/C is 100 % of control (dose: 50.0 mg/kg/injection, schedule: Q01DX001 (ip), vehicle: saline); 100 % of control (dose: 100.0 mg/kg/injection, schedule: Q01DX001 (ip), vehicle: saline); 100 % of control (dose: 200.0 mg/kg/injection, schedule: Q01DX001 (ip), vehicle: saline); 100 % of control (dose: 400.0 mg/kg/injection, schedule: Q01DX001 (ip), vehicle: saline).
Take `C=CCc1ccc(OCCOCCNC2CC3CCC2(C)C3(C)C)c(OC)c1` (stereo not drawn): the T/C under setting [1] was 89 % of control.
Take `CC(=O)C1=CCC2C3CC(C)=C4CC(O)CCC4(C)C3CCC12C` (stereo not drawn): the T/C is, setting by setting: under setting [2], 94 % of control; under setting [3], 92 % of control; under setting [4], 90 % of control.
As for `O=C(O)c1cccc2c1-c1ccc(Cl)cc1C2`, the T/C was 104 % of control under setting [1] and 102 % of control under setting [5].
`CC1([CH2][Hg][I])CS(=O)(=O)CC(C)([CH2][Hg][I])O1` (stereo not drawn): the T/C is, setting by setting: (dose: 5.0 mg/kg/injection, schedule: Q01DX001 (ip), vehicle: saline) 104 % of control; (dose: 5.0 mg/kg/injection, schedule: Q01DX015 (ip), vehicle: saline) 94 % of control; (dose: 10.0 mg/kg/injection, schedule: Q01DX001 (ip), vehicle: saline) 104 % of control; (dose: 10.0 mg/kg/injection, schedule: Q01DX015 (ip), vehicle: saline) 97 % of control; (dose: 20.0 mg/kg/injection, schedule: Q01DX001 (ip), vehicle: saline) 96 % of control; (dose: 20.0 mg/kg/injection, schedule: Q01DX015 (ip), vehicle: saline) 102 % of control. The T/C was 98 % of control (dose: 40.0 mg/kg/injection, schedule: Q01DX001 (ip), vehicle: saline); 108 % of control (dose: 40.0 mg/kg/injection, schedule: Q01DX015 (ip), vehicle: saline); 104 % of control (dose: 80.0 mg/kg/injection, schedule: Q01DX001 (ip), vehicle: saline).
For the compound `CN1CCCCC1CCN1c2ccccc2Sc2ccc(Br)cc21` (stereo not drawn), the T/C was 105 % of control (dose: 3.12 mg/kg/injection, schedule: Q01DX009 (ip), vehicle: saline); 100 % of control (dose: 6.25 mg/kg/injection, schedule: Q01DX009 (ip), vehicle: saline); 101 % of control (dose: 12.5 mg/kg/injection, schedule: Q01DX009 (ip), vehicle: saline).
Regarding `O=C(O)c1ccc(CCCCBr)cc1`, the T/C (dose: 100.0 mg/kg/injection, schedule: Q04DX002 (ip), vehicle: Klucel (hydroxypropylcellulose) (HPC)) was 96 % of control; the T/C (dose: 200.0 mg/kg/injection, schedule: Q04DX002 (ip), vehicle: Klucel (hydroxypropylcellulose) (HPC)) is 100 % of control; the T/C (dose: 400.0 mg/kg/injection, schedule: Q04DX002 (ip), vehicle: Klucel (hydroxypropylcellulose) (HPC)) is 96 % of control.
On to `COC1=C(N=[N+]=[N-])C(=O)C(OC)=C(N=[N+]=[N-])C1=O`, for which the T/C is, setting by setting: (dose: 2.0 mg/kg/injection, schedule: Q01DX009 (ip), vehicle: carboxymethylcellulose (CMC)) 93 % of control; (dose: 2.5 mg/kg/injection, schedule: Q01DX001 (ip), vehicle: carboxymethylcellulose (CMC)) 95 % of control; (dose: 4.0 mg/kg/injection, schedule: Q01DX009 (ip), vehicle: carboxymethylcellulose (CMC)) 98 % of control; (dose: 5.0 mg/kg/injection, schedule: Q01DX001 (ip), vehicle: carboxymethylcellulose (CMC)) 91 % of control; (dose: 5.0 mg/kg/injection, schedule: Q04DX003 (ip), vehicle: carboxymethylcellulose (CMC)) 93 % of control; (dose: 8.0 mg/kg/injection, schedule: Q01DX009 (ip), vehicle: carboxymethylcellulose (CMC)) 104 % of control. Further, the T/C by setting is: (dose: 10.0 mg/kg/injection, schedule: Q01DX001 (ip), vehicle: carboxymethylcellulose (CMC)) 95 % of control and 100 % of control; (dose: 10.0 mg/kg/injection, schedule: Q04DX003 (ip), vehicle: carboxymethylcellulose (CMC)) 110 % of control; (dose: 20.0 mg/kg/injection, schedule: Q01DX001 (ip), vehicle: carboxymethylcellulose (CMC)) 98 % of control; (dose: 20.0 mg/kg/injection, schedule: Q04DX003 (ip), vehicle: carboxymethylcellulose (CMC)) 90 % of control; (dose: 30.0 mg/kg/injection, schedule: Q04DX003 (ip), vehicle: saline with Tween-80) 93 % of control; (dose: 36.25 mg/kg/injection, schedule: Q01DX009 (ip), vehicle: saline) 114 % of control. Also, the T/C reads like this: (dose: 45.0 mg/kg/injection, schedule: Q04DX003 (ip), vehicle: saline with Tween-80) 104 % of control; (dose: 65.0 mg/kg/injection, schedule: Q04DX003 (ip), vehicle: saline with Tween-80) 100 % of control; (dose: 72.5 mg/kg/injection, schedule: Q01DX009 (ip), vehicle: saline) 100 % of control; (dose: 95.0 mg/kg/injection, schedule: Q04DX003 (ip), vehicle: saline) 94 % of control; (dose: 145.0 mg/kg/injection, schedule: Q01DX009 (ip), vehicle: saline) 86 % of control; (dose: 145.0 mg/kg/injection, schedule: Q04DX003 (ip), vehicle: saline) 92 % of control.
In the case of `CC(C)=C1C2CCC1C(COS(=O)(=O)c1ccc(C)cc1)C2COS(=O)(=O)c1ccc(C)cc1` (stereo not drawn), the T/C is, setting by setting: (dose: 100.0 mg/kg/injection, schedule: Q01DX009 (ip), vehicle: Klucel (hydroxypropylcellulose) (HPC)) 96 % of control; under setting [1], 98 % of control; (dose: 200.0 mg/kg/injection, schedule: Q01DX009 (ip), vehicle: Klucel (hydroxypropylcellulose) (HPC)) 100 % of control; under setting [5], 104 % of control; (dose: 400.0 mg/kg/injection, schedule: Q01DX009 (ip), vehicle: Klucel (hydroxypropylcellulose) (HPC)) 94 % of control; (dose: 400.0 mg/kg/injection, schedule: Q04DX003 (ip), vehicle: Klucel (hydroxypropylcellulose) (HPC)) 102 % of control.
In the case of `CC(=O)N/N=C/c1ccc(N(C)C)cc1`, the T/C is 94 % of control (dose: 100.0 mg/kg/injection, schedule: Q01DX001 (ip), vehicle: carboxymethylcellulose (CMC)) and 94 % of control (dose: 200.0 mg/kg/injection, schedule: Q01DX001 (ip), vehicle: carboxymethylcellulose (CMC)).
For the compound `Nc1n[nH]c(=O)[nH]1`, the T/C (dose: 44.0 mg/kg/injection, schedule: Q03HX024 (ip), vehicle: saline) was 108 % of control; the T/C (dose: 67.0 mg/kg/injection, schedule: Q03HX024 (ip), vehicle: saline) was 107 % of control; the T/C (dose: 100.0 mg/kg/injection, schedule: Q01DX009 (ip), vehicle: saline) was 115 % of control; the T/C (dose: 100.0 mg/kg/injection, schedule: Q03HX024 (ip), vehicle: saline) is 112 % of control; the T/C (dose: 177.0 mg/kg/injection, schedule: Q01DX009 (ip), vehicle: saline) is 120 % of control; the T/C (dose: 200.0 mg/kg/injection, schedule: Q01DX009 (ip), vehicle: saline) was 121 % of control. Moreover, the T/C (dose: 225.0 mg/kg/injection, schedule: Q03HX024 (ip), vehicle: saline) was 153 % of control; the T/C (dose: 266.0 mg/kg/injection, schedule: Q01DX009 (ip), vehicle: saline) was 180 % of control; the T/C (dose: 266.0 mg/kg/injection, schedule: Q04DX003 (ip), vehicle: saline) is 104 % of control; the T/C (dose: 400.0 mg/kg/injection, schedule: Q01DX009 (ip), vehicle: saline) was 185 % of control; the T/C (dose: 400.0 mg/kg/injection, schedule: Q04DX003 (ip), vehicle: saline) was 113 % of control; the T/C (dose: 600.0 mg/kg/injection, schedule: Q01DX009 (ip), vehicle: saline) was 164 % of control and 186 % of control. The T/C (dose: 600.0 mg/kg/injection, schedule: Q04DX003 (ip), vehicle: saline) is 118 % of control.
For the compound `NC(=S)N/N=C\C(=N/NC(N)=S)C(O)CO` (stereo not drawn), the T/C (dose: 75.0 mg/kg/injection, schedule: Q01DX001 (ip), vehicle: saline) is 97 % of control and the T/C (dose: 150.0 mg/kg/injection, schedule: Q01DX001 (ip), vehicle: saline) was 101 % of control.
Take `CC[N+](C)(CC)/N=C(\C)c1ccccc1`: under setting [2], the T/C is 105 % of control.
For the compound `Oc1ccc(Cl)cc1C(c1cc(Cl)ccc1O)C(Cl)(Cl)Cl`, the T/C (dose: 100.0 mg/kg/injection, schedule: Q04DX002 (ip), vehicle: saline + alcohol) is 99 % of control; the T/C (dose: 200.0 mg/kg/injection, schedule: Q04DX002 (ip), vehicle: saline + alcohol) was 108 % of control; the T/C (dose: 400.0 mg/kg/injection, schedule: Q04DX002 (ip), vehicle: saline + alcohol) is 102 % of control.
As for `N#Cc1ccc(C#N)c2ccccc12`, the T/C is 96 % of control under setting [2], 98 % of control under setting [3] and 96 % of control under setting [4].

(Values after PubChem BioAssay AID248 (DTP/NCI, 2004).)
